Laboratory results: patent publication US20190111137A1, “METHODS FOR ANTAGONISTS OF A NON-SELECTIVE CATION CHANNEL IN NEURAL CELLS” (University of Maryland, Baltimore, priority 2007, published 2019)
pEC50, pIC50: −log10 of the molar value. Entries after “also recorded” stand apart in the source; their conditions may differ. Read-outs that look alike come from different tables or passages of the source. Values belong to the compound of their own block, whether it stands above or below them.

Experiments:
[1] = system: global cerebral ischemia in gerbils; details: in vivo; cited from earlier work
NCCa-ATP channel [2] = assay: Patch clamp of bEnd.3 cells exposed to TNFα, ATP depleted with Na azide plus 2-DG; format: cell-based, murine
Protocol: (§1) (iii) Pharmacological block of SUR1 and TRPM4/patch clamp.
(§2) Patch clamp was performed using a nystatin-perforated patch technique to maintain the metabolic integrity of the cells.
(§3) Single channel recordings were performed using inside-out patches, with Cs^+ as the only permeant cation.
(§4) Apart from direct application of PIP2 (FIG. 24A), PIP2 levels can be augmented by inhibiting spontaneously active PLC.
(§5) PATCH CLAMP. […] In general, recordings are carried out using a Cs^+ rich solution, to preclude recording activity from any K^+ channel including KATP channel.

TRPM4 channel = details: cited from earlier work
NCCa-ATP channel [3] = target: T1, NCCa-ATP channel (Rattus norvegicus, UniProt Q09429+Q9ESQ5); assay: Patch clamp of NCCa-ATP channel in freshly isolated native reactive astrocytes; format: cell-based; details: for pEC50: read-out: [ATP]1 EC50
T1 construct: endogenous in cells; host or cells: freshly isolated native reactive astrocytes from the hypoxic gliotic capsule
Protocol: as §5

[4] = system: rat model of contusion SCI; details: as reported (Simard et al., 2007); cited from earlier work
NCCa-ATP channel [5] = target: T1, NCCa-ATP channel; details: cited from earlier work; for channel opening in the presence of ATP: K+ channel openers
NCCa-ATP channel [6] = target: T2, NCCa-ATP channel (Mus musculus, UniProt B2RUS7+Q7TN37); assay: Patch clamp of bEnd.3 cells exposed to TNFα, ATP depleted with Na azide plus 2-DG; format: cell-based, murine; details: TNFα-treated bEnd.3 cells; for block of single channel activity (inside-out patch): Cs+ as the only permeant cation
T2 construct: exposure to TNFα causes expression of a new channel that is not present before exposure to TNFα; host or cells: bEnd.3 cells exposed to TNFα
Protocol: as §1, §2, §3, §4, §5

reactive astrocytes = details: without ATP depletion; cited from earlier work
[7] = target: receptor-mediated Ca^2+ entry; details: cited from earlier work
human TRP3 = target: T3, human TRP3 (Homo sapiens, UniProt Q13507); details: high concentrations; cited from earlier work
T3 construct: expressed in transfected cells
T3 sequence (Q13507 1-848 isoform Q13507-3): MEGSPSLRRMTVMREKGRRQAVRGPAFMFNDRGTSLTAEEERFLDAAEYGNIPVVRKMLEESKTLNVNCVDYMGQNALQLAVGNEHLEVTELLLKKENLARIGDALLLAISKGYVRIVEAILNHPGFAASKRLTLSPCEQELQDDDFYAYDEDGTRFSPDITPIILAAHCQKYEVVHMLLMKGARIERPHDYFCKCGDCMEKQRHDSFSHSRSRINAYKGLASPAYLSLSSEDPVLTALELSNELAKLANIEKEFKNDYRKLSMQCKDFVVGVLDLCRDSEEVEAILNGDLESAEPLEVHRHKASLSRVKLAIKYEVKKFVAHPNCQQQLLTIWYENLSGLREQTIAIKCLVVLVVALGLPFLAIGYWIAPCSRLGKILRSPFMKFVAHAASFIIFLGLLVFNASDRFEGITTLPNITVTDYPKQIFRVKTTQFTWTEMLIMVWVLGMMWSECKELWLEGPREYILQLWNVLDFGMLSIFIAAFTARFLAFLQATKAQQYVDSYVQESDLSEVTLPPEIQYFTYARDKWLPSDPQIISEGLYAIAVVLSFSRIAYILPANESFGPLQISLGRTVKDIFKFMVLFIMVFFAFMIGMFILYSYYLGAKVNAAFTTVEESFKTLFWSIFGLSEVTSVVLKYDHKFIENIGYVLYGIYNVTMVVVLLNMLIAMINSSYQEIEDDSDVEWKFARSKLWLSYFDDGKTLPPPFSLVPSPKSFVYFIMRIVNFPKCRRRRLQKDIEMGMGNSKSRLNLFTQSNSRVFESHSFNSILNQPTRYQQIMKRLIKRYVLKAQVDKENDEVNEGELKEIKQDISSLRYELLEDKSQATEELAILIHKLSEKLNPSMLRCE

[8] = system: endothelial cells of the BBB; details: cited from earlier work
[9] = system: isolated retina of chick embryo; details: cited from earlier work
[10] = system: rat model of contusion SCI; assay: Rat model of unilateral cervical spinal cord injury (SCI); format: in vivo; details: for neurobehavioral function (inclined plane, rearing) / progressive hemorrhagic necrosis / progressive hemorrhage: post-SCI
TRPM2 = target: T4, TRPM2 (Homo sapiens, UniProt O94759); details: activated by extracellular H2O2; cited from earlier work
T4 construct: host or cells: Chinese hamster ovary cells

[11] = system: rodent model of transient focal ischemia; details: pre- or post-ischemic administration; cited from earlier work
temporary MCAO model = details: cited from earlier work
[12] = system: permanent middle cerebral artery occlusion (MCAO) model; details: cited from earlier work
[13] = system: rat model of ischemic stroke; details: given 30 min after initiation of permanent MCAO; cited from earlier work
[14] = Membrane Preparation derived from freshly isolated native reactive astrocytes
[15] = after 6 h of vascular occlusion

T2 sequence (Q7TN37 whole entry): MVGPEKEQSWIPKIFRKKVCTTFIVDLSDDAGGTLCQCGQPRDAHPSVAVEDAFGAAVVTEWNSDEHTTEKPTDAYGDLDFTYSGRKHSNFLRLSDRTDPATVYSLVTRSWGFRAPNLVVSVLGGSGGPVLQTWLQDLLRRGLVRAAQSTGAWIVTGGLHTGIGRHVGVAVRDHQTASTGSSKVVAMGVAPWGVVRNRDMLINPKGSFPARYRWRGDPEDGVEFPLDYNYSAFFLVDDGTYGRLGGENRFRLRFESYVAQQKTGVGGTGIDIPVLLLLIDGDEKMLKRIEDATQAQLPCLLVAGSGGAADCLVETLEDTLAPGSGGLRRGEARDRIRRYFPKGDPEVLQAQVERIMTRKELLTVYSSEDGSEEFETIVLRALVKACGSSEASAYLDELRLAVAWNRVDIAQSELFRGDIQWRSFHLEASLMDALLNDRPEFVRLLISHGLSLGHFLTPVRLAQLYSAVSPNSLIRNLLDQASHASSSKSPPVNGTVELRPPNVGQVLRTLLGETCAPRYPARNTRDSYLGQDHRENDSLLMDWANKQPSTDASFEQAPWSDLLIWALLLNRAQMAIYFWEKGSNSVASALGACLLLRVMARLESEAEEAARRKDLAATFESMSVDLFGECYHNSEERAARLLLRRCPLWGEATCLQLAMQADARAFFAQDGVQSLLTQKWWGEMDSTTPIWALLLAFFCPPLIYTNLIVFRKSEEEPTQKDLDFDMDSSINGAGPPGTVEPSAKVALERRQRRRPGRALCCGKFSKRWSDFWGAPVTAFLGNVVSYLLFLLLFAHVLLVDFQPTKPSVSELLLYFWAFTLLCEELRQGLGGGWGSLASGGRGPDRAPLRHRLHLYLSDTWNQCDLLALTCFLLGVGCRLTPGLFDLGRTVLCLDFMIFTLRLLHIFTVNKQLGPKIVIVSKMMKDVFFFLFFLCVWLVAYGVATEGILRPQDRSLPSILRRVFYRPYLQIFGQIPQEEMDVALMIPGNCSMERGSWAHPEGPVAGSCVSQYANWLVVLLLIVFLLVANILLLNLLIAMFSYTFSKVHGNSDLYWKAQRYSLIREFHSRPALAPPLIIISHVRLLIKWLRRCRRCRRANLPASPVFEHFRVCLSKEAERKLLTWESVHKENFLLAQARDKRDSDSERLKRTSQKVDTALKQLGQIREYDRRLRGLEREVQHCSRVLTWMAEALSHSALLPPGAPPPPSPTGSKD
T2 sequence (B2RUS7 1-1588): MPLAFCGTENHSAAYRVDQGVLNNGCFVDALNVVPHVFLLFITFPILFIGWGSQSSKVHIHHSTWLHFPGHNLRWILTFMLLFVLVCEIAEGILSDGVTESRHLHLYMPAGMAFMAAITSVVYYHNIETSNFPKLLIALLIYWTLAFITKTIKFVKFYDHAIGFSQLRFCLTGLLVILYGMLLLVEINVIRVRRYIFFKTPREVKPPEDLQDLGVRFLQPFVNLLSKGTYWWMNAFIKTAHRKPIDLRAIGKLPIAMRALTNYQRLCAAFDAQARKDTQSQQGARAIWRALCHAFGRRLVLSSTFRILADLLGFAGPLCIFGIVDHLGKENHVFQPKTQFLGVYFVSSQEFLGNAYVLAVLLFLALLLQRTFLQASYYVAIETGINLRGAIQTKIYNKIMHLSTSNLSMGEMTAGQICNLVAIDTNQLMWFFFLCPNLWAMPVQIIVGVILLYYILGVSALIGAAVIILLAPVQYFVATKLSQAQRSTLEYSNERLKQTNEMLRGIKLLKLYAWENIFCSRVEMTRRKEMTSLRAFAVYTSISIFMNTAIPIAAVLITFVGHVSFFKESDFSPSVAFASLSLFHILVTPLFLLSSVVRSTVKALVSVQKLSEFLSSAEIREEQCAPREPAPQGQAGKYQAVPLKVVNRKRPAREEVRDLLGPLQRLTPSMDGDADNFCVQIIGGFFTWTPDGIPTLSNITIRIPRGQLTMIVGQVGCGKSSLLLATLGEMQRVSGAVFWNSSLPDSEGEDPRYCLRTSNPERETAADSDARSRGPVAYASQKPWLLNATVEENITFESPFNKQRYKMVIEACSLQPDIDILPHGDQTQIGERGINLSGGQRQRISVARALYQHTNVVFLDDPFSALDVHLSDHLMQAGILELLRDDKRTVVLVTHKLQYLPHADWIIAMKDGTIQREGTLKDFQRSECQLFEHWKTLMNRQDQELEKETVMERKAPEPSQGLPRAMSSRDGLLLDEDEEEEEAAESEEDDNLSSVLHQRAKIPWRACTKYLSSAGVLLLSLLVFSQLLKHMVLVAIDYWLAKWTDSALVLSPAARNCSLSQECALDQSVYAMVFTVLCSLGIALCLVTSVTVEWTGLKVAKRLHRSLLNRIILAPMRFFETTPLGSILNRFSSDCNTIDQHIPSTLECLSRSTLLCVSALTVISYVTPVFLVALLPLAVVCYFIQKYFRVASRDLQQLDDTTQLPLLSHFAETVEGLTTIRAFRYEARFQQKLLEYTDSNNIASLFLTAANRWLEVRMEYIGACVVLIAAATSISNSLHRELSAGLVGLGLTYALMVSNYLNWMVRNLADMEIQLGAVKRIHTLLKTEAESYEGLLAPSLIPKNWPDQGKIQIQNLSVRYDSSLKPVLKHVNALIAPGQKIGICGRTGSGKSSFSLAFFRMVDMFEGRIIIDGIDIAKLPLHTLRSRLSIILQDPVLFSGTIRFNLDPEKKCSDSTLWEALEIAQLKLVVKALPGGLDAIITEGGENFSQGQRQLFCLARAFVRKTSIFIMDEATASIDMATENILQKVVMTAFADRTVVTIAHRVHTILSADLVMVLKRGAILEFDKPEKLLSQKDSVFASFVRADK
T4 sequence (O94759 whole entry): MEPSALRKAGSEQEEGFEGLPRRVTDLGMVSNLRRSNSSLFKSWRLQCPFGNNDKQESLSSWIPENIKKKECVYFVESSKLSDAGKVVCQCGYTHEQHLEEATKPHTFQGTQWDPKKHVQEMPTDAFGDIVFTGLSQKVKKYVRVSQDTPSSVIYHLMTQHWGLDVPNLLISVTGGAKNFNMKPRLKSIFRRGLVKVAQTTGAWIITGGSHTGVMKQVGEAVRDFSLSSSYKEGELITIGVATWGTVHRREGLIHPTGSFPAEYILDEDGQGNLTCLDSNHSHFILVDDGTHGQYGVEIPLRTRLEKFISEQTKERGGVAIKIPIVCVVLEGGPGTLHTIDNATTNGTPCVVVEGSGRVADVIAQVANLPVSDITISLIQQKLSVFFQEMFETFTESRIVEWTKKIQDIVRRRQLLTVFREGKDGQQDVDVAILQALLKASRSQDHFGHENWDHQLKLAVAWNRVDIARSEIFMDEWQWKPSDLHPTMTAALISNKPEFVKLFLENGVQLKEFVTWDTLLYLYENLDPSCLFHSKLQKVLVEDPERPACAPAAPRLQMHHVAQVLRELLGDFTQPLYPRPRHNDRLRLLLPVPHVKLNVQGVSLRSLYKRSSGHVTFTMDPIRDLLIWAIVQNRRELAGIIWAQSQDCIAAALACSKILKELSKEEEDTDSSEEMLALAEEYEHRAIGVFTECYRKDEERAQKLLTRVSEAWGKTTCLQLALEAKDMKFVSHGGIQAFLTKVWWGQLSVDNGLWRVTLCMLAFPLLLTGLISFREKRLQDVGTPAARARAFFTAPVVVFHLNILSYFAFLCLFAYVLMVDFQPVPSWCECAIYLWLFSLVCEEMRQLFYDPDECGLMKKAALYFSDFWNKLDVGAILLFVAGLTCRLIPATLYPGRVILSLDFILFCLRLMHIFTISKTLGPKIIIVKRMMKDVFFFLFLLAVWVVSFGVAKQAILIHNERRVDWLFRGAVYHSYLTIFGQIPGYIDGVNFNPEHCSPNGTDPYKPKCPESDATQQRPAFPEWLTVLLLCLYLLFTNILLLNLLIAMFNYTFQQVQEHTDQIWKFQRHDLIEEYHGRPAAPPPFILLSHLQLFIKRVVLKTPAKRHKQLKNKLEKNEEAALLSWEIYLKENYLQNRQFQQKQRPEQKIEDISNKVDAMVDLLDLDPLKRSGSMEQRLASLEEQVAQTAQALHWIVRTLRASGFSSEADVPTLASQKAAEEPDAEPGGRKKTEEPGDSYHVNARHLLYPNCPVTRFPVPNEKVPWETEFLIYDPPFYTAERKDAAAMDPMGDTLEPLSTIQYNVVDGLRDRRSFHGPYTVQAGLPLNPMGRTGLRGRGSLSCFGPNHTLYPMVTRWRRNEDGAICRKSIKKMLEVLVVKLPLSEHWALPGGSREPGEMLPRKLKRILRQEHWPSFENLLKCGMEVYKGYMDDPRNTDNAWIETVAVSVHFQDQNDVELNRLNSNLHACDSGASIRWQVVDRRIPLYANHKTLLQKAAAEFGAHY

Compound: COc1cc(CNC(=O)CCCC/C=C/C(C)C)ccc1O [capsaicin]
electroencephalographic changes, hyperlocomotion and memory impairment induced by global ischemia [1]: antagonize
survival of pyramidal cells in the CA1 subfield of the hippocampus [1]: progressive survival

Compound: COc1ccc2c(c1)CC[C@@H]1[C@@H]2CC[C@]2(C)[C@@H](NCCCCCCN3C(=O)C=CC3=O)CC[C@@H]12 [U73122]
channel activation by inhibiting phospholipase C (whole cell) (NCCa-ATP channel [2]; TNFα-stimulated bEnd.3 cells): activated an ohmic current; also recorded: channel activation
channel activation by inhibiting phospholipase C (whole cell) (NCCa-ATP channel [2]; control bEnd.3 cells): without effect

PIP2 activation (NCCa-ATP channel [3]; SUR1-regulated NCCa-ATP, unpublished observations): yes*
Compound: PIP2
PIP2 activation (TRPM4 channel): yes
channel activity after addition of PIP2 (NCCa-ATP channel [3]; inside-out patch, high concentration of ATP (10 mM) on the cytoplasmic side): robust channel activation; also recorded: release of inhibition

Compound: CCOc1cc(CC(=O)N[C@@H](CC(C)C)c2ccccc2N2CCCCC2)ccc1C(=O)O [repaglinide]
neurological function [4]: improves neurological function
progressive hemorrhagic necrosis [4]: reduces progressive hemorrhagic necrosis

Compound: Oc1cc2c(cc1O)CN(C(=S)NCCc1ccc(Cl)cc1)CCC2 [capsazepine]
effect on rimonabant-induced and capsaicin-induced neuroprotective effects [1]: reversed

Compound: CCCCNC(=O)NS(=O)(=O)c1ccc(C)cc1 [tolbutamide]
pEC50 (NCCa-ATP channel [5]; pH 7.4, read-out: block of NCCa-ATP channel opening (EC50)): 4.79

pEC50 (NCCa-ATP channel [3]; [14]): 6.10
pEC50 (NCCa-ATP channel [3]; Reactive Astrocytes): 6.10
block of single channel activity (inside-out patch) (NCCa-ATP channel [6]): reversibly blocked
Compound: Nc1ncnc2c1ncn2[C@@H]1O[C@H](COP(=O)(O)OP(=O)(O)OP(=O)(O)O)[C@@H](O)[C@H]1O [ATP]
pEC50 (TRPM4 channel; read-out: ATP block (EC50)): 5.77 to 6.89
pEC50 (NCCa-ATP channel [5]; SUR1-regulated NCCa-ATP, read-out: ATP block (EC50)): 6.10
pEC50 (NCCa-ATP channel [5]; read-out: Channel opening blocked by ATP (EC50)): 6.10

Compound: CC1(C)Oc2ccc(C#N)cc2C(N2CCCC2=O)C1O (centres unmarked) [cromakalin]
channel opening in the presence of ATP (NCCa-ATP channel [5]): not

Activation [Ca^2+] (NCCa-ATP channel [3]; [14]): <1.0 µM
Activation [Ca^2+] (NCCa-ATP channel [3]; Reactive Astrocytes): <1.0 µM
Compound: [Ca+2] [Ca^2+]
pEC50 (TRPM4 channel; read-out: Ca^2+ activation (EC50)): 5.89
pEC50 (NCCa-ATP channel [5]; SUR1-regulated NCCa-ATP, read-out: Ca^2+ activation (EC50)): 5.82 to 6.92

Compound: CC1=NS(=O)(=O)c2cc(Cl)ccc2N1 [diazoxide]
channel opening in the presence of ATP (NCCa-ATP channel [5]): increased
bleb formation (reactive astrocytes): reproduced

Compound: COc1ccc(CCCOC(Cn2ccnc2)c2ccc(OC)cc2)cc1.Cl (stereo not drawn) [SKF 96365, 1-(beta[3-(4-methoxy-phenyl)propoxy]-4-methoxyphenethyl)-1H-imidazole hydrochloride]
pIC50 [7]: ~5.00
increased Ca^2+ entry in TRP3-expressing cells (human TRP3): blocked
expression of the tight junction protein occludin ([8]; after hypoxic/aglycemic stress): increased
hypoxia-induced BBB disruption ([8]; normoglycemia): protective

block of current activated by ATP depletion (whole cell) (NCCa-ATP channel [6]; 100 μM flufenamic acid): blocked
block of single channel activity (inside-out patch) (NCCa-ATP channel [6]): blocked
block of current activated by ATP depletion (whole cell) (NCCa-ATP channel [6]; listed as FFA): blocked
Compound: O=C(O)c1ccccc1Nc1cccc(C(F)(F)F)c1 [flufenamic acid]
protection of the retina against ischemic or excitotoxic insult [9]: protected
amount of blood in cord homogenates ([10]; 24-hr post-SCI, post-treatment): significant decrease in blood
hemorrhage in cords (surface and sections) ([10]; 24 h post-SCI): less hemorrhage
neurobehavioral function (inclined plane, rearing) [10]: improves neurological function; also recorded: improved
progressive hemorrhagic necrosis / progressive hemorrhage [10]: reduces progressive hemorrhagic necrosis; also recorded: blocked
neurobehavioral function (inclined plane, rearing) ([10]; listed as FFA): improve neurobehavioral function; also recorded: significantly better performance than controls
progressive hemorrhagic necrosis / progressive hemorrhage ([10]; listed as FFA): prevented
capillary integrity (vimentin immunolabeling) ([10]; region of injury post-SCI, listed as FFA): elongated capillaries; also recorded: elongated and more intact
inhibition of TRPM2 (TRPM2): inhibits
block of current activated by ATP depletion (whole cell) (NCCa-ATP channel [6]): blocked; also recorded: also blocks this current

Compound: Cc1cccc(Nc2ccccc2C(=O)O)c1C [mefenamic acid]
protection of the retina against ischemic or excitotoxic insult [9]: protected
neuroprotection (necrosis in cortex and subcortical structures) [11]: no neuroprotection

Compound: Nc1ncnc2c1ncn2[C@@H]1O[C@H](COP(=O)(O)O)[C@@H](O)[C@H]1O [AMP]
ADP, AMP block (TRPM4 channel): yes
ADP AMP channel effect (NCCa-ATP channel [3]; [14]): No channel
ADP AMP channel effect (NCCa-ATP channel [3]; Reactive Astrocytes): No channel
ADP, AMP block (NCCa-ATP channel [5]; SUR1-regulated NCCa-ATP): no
effect of ADP or AMP on channel opening (NCCa-ATP channel [5]): unaffected

Compound: COc1cc2c(cc1OC)C(C(C(=O)N(CCc1ccc(OC)c(OC)c1OC)CCc1ccc(OC)c(OC)c1OC)c1ccccc1)=NCC2 (racemic) [pinokalant, (R,S)-(3,4-dihydro-6,7-dimethoxy-isoquinoline-1-yl)-2-phenyl-N,N-di[2-(2,3,4-trimethoxyphenyl)ethyl]-acetamide]
DWI-derived infarct volume (temporary MCAO model; 4 h after MCAO): significantly smaller
neurological scores (temporary MCAO model; 24 h): significantly better
TTC-derived infarct volume (temporary MCAO model; postmortem): significantly attenuated
size of the ischemic core (temporary MCAO model; rat, in vivo): significantly smaller
blood flow [12, 15]: significantly higher
volume of ATP-depleted and morphologically injured tissue (infarct core), smaller [12, 15]: 60-70%
decrease of ADC lesion volume ([12]; during the initial 6 h of vascular occlusion): approximately 20%
size of ischemic penumbra ([12]; volume of severely acidic tissue): does not reduce

Compound: Nc1ncnc2c1ncn2[C@@H]1O[C@H](COP(=O)(O)OP(=O)(O)O)[C@@H](O)[C@H]1O [ADP]
ADP, AMP block (TRPM4 channel): yes
ADP AMP channel effect (NCCa-ATP channel [3]; [14]): No channel
ADP AMP channel effect (NCCa-ATP channel [3]; Reactive Astrocytes): No channel
ADP, AMP block (NCCa-ATP channel [5]; SUR1-regulated NCCa-ATP): no
effect of ADP or AMP on channel opening (NCCa-ATP channel [5]): unaffected

Compound: Cc1c(C(=O)NN2CCCCC2)nn(-c2ccc(Cl)cc2Cl)c1-c1ccc(Cl)cc1 [rimonabant]
reduction of infarct volume [13]: ~40%
electroencephalographic changes, hyperlocomotion and memory impairment induced by global ischemia [1]: antagonize
survival of pyramidal cells in the CA1 subfield of the hippocampus [1]: progressive survival

Compound: S=C(S)N1CCCC1 [PDTC, pyrrolidine dithiocarbamate]
TRPM4 expression in cord (immunolabeling) ([10]; 24 h post-SCI): significantly decreased; also recorded: reduces TRPM4 expression
neurobehavioral function (inclined plane, rearing) [10]: improved functional outcome

Compound: CC(N/C(=N\C#N)Nc1ccncc1)C(C)(C)C (centres unmarked) [pinacidil]
channel opening in the presence of ATP (NCCa-ATP channel [5]): not

Compound: Cc1ccc(Cl)c(Nc2ccccc2C(=O)O)c1Cl [meclofenamic acid]
protection of the retina against ischemic or excitotoxic insult [9]: protected
